Assay [1] in a line: caspase 3/7 activation in SNB19 cells, mechanism study for HRAS target identification, cell-based, luminescence, several timepoints, dry powder (AID 720614). The following applies: SNB19 (HRAS) caspase 3/7 apoptosis luminescence, multiple timepoints; for caspase 3/7 activation: at 35 µM (top of the series); for max activity: measured here: timepoint 3 max caspase activation, stronger effect = higher value.

Assay [2] concerns SNB19 (HRAS) caspase 3/7 apoptosis luminescence, multiple timepoints. The assay is described as above.

Results filed as inconclusive are left out. The source made the active and inactive calls. The rule behind the calls is not given here.

Turning to `Cc1onc(C(=O)N2CCN(C(c3ccc(Cl)cc3)c3ccc(OCCOCCOCCNC(=O)OC(C)(C)C)cc3)CC2)c1[N+](=O)[O-]` (stereo unspecified), the caspase 3/7 activation in assay [1] is 12.2% (inactive). The max activity in assay [1] (at 0.26 µM) is 25.3%.

Regarding `CC(C)(C)OC(=O)NCCOCCOCCOc1ccc(N(C(=O)CCl)C(C(=O)NCCc2ccccc2)c2cccs2)cc1Cl` (stereo unspecified), the max activity in assay [1] (at 0.5 µM) was 18.7%. The AC40 in assay [2] is > 35 µM (inactive).

On to `CCC(=O)N(c1ccc(OC)c(Cl)c1)C(C(=O)NCCc1ccccc1)c1cccs1` (stereo unspecified), for which the caspase 3/7 activation in assay [1] is -10.3% (inactive). In addition, the max activity in assay [1] (at 16 µM) stood at 18.7%.

Consider `Cc1onc(C(=O)N2CCN(C(c3ccc(Cl)cc3)c3ccc(Cl)cc3)CC2)c1[N+](=O)[O-]`, for which, in assay [1], the caspase 3/7 activation is 12.2% (inactive). The max activity in assay [1] (at 16 µM) was -17.3%.

Turning to `CO[C@H]1C[C@@H]2CC[C@@H](C)[C@@](O)(O2)C(=O)C(=O)N2CCCC[C@H]2C(=O)O[C@H]([C@H](C)C[C@@H]2CC[C@@H](O)[C@H](OC)C2)CC(=O)[C@H](C)/C=C(\C)[C@@H](O)[C@@H](OC)C(=O)[C@H](C)C[C@H](C)/C=C/C=C/C=C/1C`, the caspase 3/7 activation in assay [1] is 2.8% (inactive). Besides, the max activity in assay [1] (at 0.008 µM) came out at 32%. Besides, the AC40 in assay [2] (measured here: timepoint 2 caspase activation) was > 35 µM.

Source of the values: PubChem BioAssay AID720614 (Broad Institute, 2013).
